{
  "source": "patent US20100190957A1",
  "about": "“SPECIFIC THERAPY AND MEDICAMENT USING INTEGRIN LIGANDS FOR TREATING CANCER” (priority 2007, published 2010)",
  "key": {"NSCLC A549": {"system": "NSCLC A549", "assay": "Proliferation / cell viability assay, Alamar Blue, A549", "format": "cell-based, human", "conditions": "for EC50: Homo sapiens, A549, agent alone or + Cilengitide", "procedure": "(§1) The effect of integrin alpha V blocker EMD 121974 (Cilengitide) on the viability of human carcinoma cells were tested, in combination with vinorelbine and paclitaxel, respectively, in a cell viability assay, dependent on reduction of Alamar blue dye. Each agent alone could inhibiting carcinoma viability, used together the compounds show an advantagous and preferably synergistic inhibitory effect.\n(§2) The methods established and described in detail previously (Goodman and Hahn a; b) were used to measure the effect of combinations of integrin inhibitors and chemotherapeutics on carcinoma cell and human endothelial cell proliferation.\n(§3) Points were run in duplicate or in triplicate. Reagent blanks, containing media plus Alamar Blue without cells, were run on each plate. Blank values were subtracted from test values and were routinely 5-10% of uninhibited control values.\n(§4) Chemotherapeutic agents and αv-integrin blockers were serially diluted alone or together (combination therapy). In some assays the chemotherapeutic agent was serially diluted alone or in combination with of alpha-v integrin blocker. Growth inhibition curves were plotted and a shift of the combination therapy curve to lower concentrations in relation to the single agent curves was interpreted as an additional effect, produced by combination versus monotherapy.\n(§5) The αv-integrin competitive inhibitor Cilengitide (EMD 121974) was tested alone and in combination with vinorelbine in a serum growth stimulation assay using human carcinoma cells or human umbilical vein endothelial cells (HUVECs). In these assays cells are cultured in serum, or in an endothelial growth stimulation medium (Goodman & Hahn)."}, "renal carcinoma (A498)": {"system": "renal carcinoma (A498)", "assay": "Proliferation / cell viability assay, Alamar Blue, A498", "format": "cell-based, human", "conditions": "for EC50: Homo sapiens, A498, agent alone or + Cilengitide (2 μM constant)", "procedure": "as §1, §2, §3, §4, §5\nCilengitide concentration is 2μM (constant)."}, "[1]": {"system": "human umbilical vein endothelial cells (HUVECs)", "assay": "Serum growth stimulation (proliferation) assay, Alamar Blue, HUVEC", "format": "cell-based", "procedure": "as §1, §2, §3\nIn the growth assay Cilengitide was tested in the range of 50 μM to 0.1 nM.\nas §4, §5"}, "SCCHN (Detroit562)": {"system": "SCCHN (Detroit562)", "assay": "Proliferation assay, Detroit 562", "format": "cell-based, human", "conditions": "Cilengitide 2 μM (constant)"}, "[2]": {"system": "U251 human glioblastoma cells", "assay": "Rat orthotopic glioblastoma model, radiotherapy / cilengitide scheduling experiments (survival)", "format": "in vivo, NIH rnu nude rats", "set-up": "key to Status at Date of Termination: Sick = moribund and removed from study; Healthy = indicates sampled for tissue at date shown, but alive at this point; Alive = surviving at time point shown", "conditions": "for Days Post Implant / Status at Date of Termination: per animal, listed as Rt + EMD; for Days Post Implant: at date of termination, plus 7 subsequent daily boluses, 4 mg/kg", "procedure": "NIH rnu nude rats are anaesthetized, restrained, and injected intracerebrally 1 mm retro orbitally, 3mm to the right of the bregma and at a depth of 2.5 mm with 5×10E5 U251 human glioblastoma cells suspended in 10 ul of culture medium, using a #2701 Hamilton syringe fitted with a 26 gauge needle, essentially as previously described (Engebraaten et al., 1999). After 14 days, cilengitide (4 mg/kg) is given as an intraperitoneal bolus in PBS, at various time (8 h, 4 h, 2 h, 1 h) prior to a single treatment with single, collimated, dorsal-ventral beam of 6 MV x-rays, so that 95-100% of the central axis dose of 25 Gy hit the tumor volume (Kim et al., 1999). Each of the 7 subsequent days the animals also received an identical i.p. bolus of cilengitide. The animals are maintained under ad libitum food and drink until they become moribund, or are sampled for tissue analysis (in the t-4 and t-8 h groups, where the animals are healthy past 230 days post tumor injection). A Kaplan-Meier survival curve is calculated and plotted (FIG. 1) from the raw data (Table 1). All animals in the RT monotherapy group died by 120 d."}, "[3]": {"system": "recurrent glioblastoma (GBM)", "conditions": "human, in vivo", "quoted_text": "(§6) Methods: In this multicenter, open-label, randomized, uncontrolled study, pts with GBM and measurable disease that had relapsed after previous therapy with temozolomide and radiotherapy were randomized to receive cilengitide at doses of either 500 mg or 2000 mg i.v., 2×/week, until progression. Histopathology diagnosis and MRI imaging were subject to independent blinded review. The primary endpoint was Progression Free Survival (PFS) at 6 months (mths). Secondary endpoints included response, survival, time to disease progression, safety, tolerability and pharmacokinetics."}, "[4]": {"system": "newly diagnosed glioblastoma (GBM)", "assay": "Phase I/IIa trial of cilengitide and temozolomide with concomitant radiotherapy in newly diagnosed glioblastoma", "format": "in vivo, human", "procedure": "Patients and methods: Fifty-two pts (PS 0-1: 92%, 2: 8%; median age 57 yrs) after biopsy (n=9/17%) or tumor resection (n=43/83%) were treated with standard TMZ/RT (Stupp et al. NEJM 2005). In addition Cilengitide (500 mg i.v., 2×/week) was started one week before TMZ/RT and given throughout for the duration of chemotherapy or until progression. Primary endpoint was progression free survival rate at 6 months (target: 65%). Patients were followed with MRI every 2 months. Histopathologic diagnosis and MRI imaging were independently reviewed, MGMT promotor methylation status was assessed in 45 (86.5%) pts."}, "[5]": {"system": "recurrent glioblastoma (GBM)", "assay": "Phase IIa trial of cilengitide single agent therapy in patients with recurrent glioblastoma", "quoted_text": "as §6"}, "various brain tumors": {"system": "various brain tumors", "conditions": "humans; cited from earlier work"}, "[6]": {"conditions": "Homo sapiens, HUVEC, agent alone"}, "[7]": {"conditions": "Homo sapiens, HUVEC, in combination with 2 μM Cilengitide"}},
  "note": "Where “and” joins values, the source holds several entries; their conditions need not be identical. Identical values can stand only once. Entries after “also recorded” stand apart in the source; their conditions may differ.",
  "data": [
    {"smiles": "CCC1=C[C@@H]2CN(C1)Cc1c([nH]c3ccccc13)[C@@](C(=O)OC)(c1cc3c(cc1OC)N(C)[C@H]1[C@@](O)(C(=O)OC)[C@H](OC(C)=O)[C@]4(CC)C=CCN5CC[C@]31[C@@H]54)C2", "note": "[Vinorelbine]", "values": [
      {"measurement": "effect of combination with Cilengitide on growth of A549", "setting": "NSCLC A549", "value": "synergistically enhanced"},
      {"measurement": "EC50", "setting": "NSCLC A549", "value": 8, "unit": "nM"},
      {"measurement": "effect of combination with Cilengitide on A498 cell proliferation", "setting": "renal carcinoma (A498); Cilengitide constant at 2 μM", "value": "synergistically enhanced"},
      {"measurement": "EC50", "setting": "renal carcinoma (A498)", "value": 60, "unit": "nM"},
      {"measurement": "IC50", "setting": "[1]; [6]", "value": 20, "unit": "nM"},
      {"measurement": "IC50", "setting": "[1]; [7]", "value": 0.8, "unit": "nM"},
      {"measurement": "effect of combination with Cilengitide on SCCHN (Detroit562) cell proliferation", "setting": "SCCHN (Detroit562)", "value": "synergistically enhanced"}
    ]},
    {"smiles": "CC(=O)O[C@H]1C(=O)[C@@]2(C)[C@H]([C@H](OC(=O)c3ccccc3)[C@]3(O)C[C@H](OC(=O)[C@H](O)[C@@H](NC(=O)c4ccccc4)c4ccccc4)C(C)=C1C3(C)C)[C@]1(OC(C)=O)CO[C@@H]1C[C@@H]2O", "note": "[Paclitaxel]", "values": [
      {"measurement": "EC50", "setting": "NSCLC A549", "value": 8, "unit": "nM"},
      {"measurement": "EC50", "setting": "renal carcinoma (A498)", "value": 100, "unit": "nM"},
      {"measurement": "IC50", "setting": "[1]; [6]", "value": 10, "unit": "nM"},
      {"measurement": "IC50", "setting": "[1]; [7]", "value": 0.05, "unit": "nM"}
    ]},
    {"smiles": "CC(C)[C@H]1C(=O)N[C@@H](CCCN=C(N)N)C(=O)NCC(=O)N[C@@H](CC(=O)O)C(=O)N[C@H](Cc2ccccc2)C(=O)N1C", "note": "[Cilengitide, cyclo-(Arg-Gly-Asp-DPhe-NMeVal)]", "values": [
      {"measurement": "Days Post Implant", "setting": "[2]; cilengitide bolus 4 mg/kg i.p. 1 hour pre-irradiation (Rt 25 Gy)", "value": "112 days and 113 days and 130 days and 141 days"},
      {"measurement": "Days Post Implant", "setting": "[2]; cilengitide bolus 4 mg/kg i.p. 2 hours pre-irradiation (Rt 25 Gy)", "value": "120 days and 147 days and 162 days and 196 days"},
      {"measurement": "Days Post Implant", "setting": "[2]; cilengitide bolus 4 mg/kg i.p. 4 hours pre-irradiation (Rt 25 Gy)", "value": "238 Days (2×) and 254 Days (2×)"},
      {"measurement": "Days Post Implant", "setting": "[2]; cilengitide bolus 4 mg/kg i.p. 8 hours pre-irradiation (Rt 25 Gy)", "value": "287 Days (2×) and 257 Days (2×)"},
      {"measurement": "Status at Date of Termination", "setting": "[2]; cilengitide 4 mg/kg 1 hour pre-irradiation (Rt 25 Gy)", "value": "(Sick) Sep. 1, 2005; also recorded: (Sick) Sep. 2, 2005; also recorded: (Sick) Sep. 19, 2005; also recorded: (Sick) Sep. 30, 2005"},
      {"measurement": "Status at Date of Termination", "setting": "[2]; cilengitide 4 mg/kg 2 hours pre-irradiation (Rt 25 Gy)", "value": "(Sick) Aug. 10, 2005; also recorded: (Sick) Sep. 6, 2005; also recorded: (Sick) Sep. 21, 2005; also recorded: (Sick) Oct. 25, 2005"},
      {"measurement": "Status at Date of Termination", "setting": "[2]; cilengitide 4 mg/kg 4 hours pre-irradiation (Rt 25 Gy)", "value": "(Healthy) Nov. 29, 2005; also recorded: (Alive) Dec. 15, 2005"},
      {"measurement": "Status at Date of Termination", "setting": "[2]; cilengitide 4 mg/kg 8 hours pre-irradiation (Rt 25 Gy)", "value": "(Alive) Dec. 15, 2005; also recorded: (Healthy) Nov. 15, 2005"},
      {"measurement": "animals healthy past days post tumor injection", "setting": "[2]; t-4 and t-8 h groups, cilengitide 4 mg/kg i.p. + 25 Gy", "value": "> 230", "unit": "days"},
      {"measurement": "CTC grade 2 cerebral hemorrhage", "setting": "[3]", "value": "One"},
      {"measurement": "haematological grade 3 and 4 toxicity: neutropenia", "setting": "[4]; Cilengitide 500 mg + TMZ/RT, 5/52", "value": 9.6, "unit": "%"},
      {"measurement": "haematological grade 3 and 4 toxicity: thrombocytopenia", "setting": "[4]; Cilengitide 500 mg + TMZ/RT, 7/52", "value": 13.4, "unit": "%"},
      {"measurement": "haematological grade 3 and 4 toxicity: lymphopenia", "setting": "[4]; Cilengitide 500 mg + TMZ/RT, 28/52", "value": 53.8, "unit": "%"},
      {"measurement": "Treatment related non-hematologic grade 3 toxicities, patients", "setting": "[4]; Cilengitide 500 mg + TMZ/RT, n=3/52", "value": 5.7, "unit": "%"},
      {"measurement": "tolerability of the combination with TMZ/RT", "setting": "[4]; Cilengitide 500 mg i.v. 2x/week + TMZ/RT", "value": "well tolerated"},
      {"measurement": "patients progression free at 6 months (PFS-6)", "setting": "[4]; Cilengitide 500 mg i.v. 2x/week added to standard TMZ/RT, 34/52, 95% CI 50.9-78.0%", "value": 65.4, "unit": "%"},
      {"measurement": "sigmoid perforation (grade 2)", "setting": "[4]; patient with a history of sigmoid diverticulosis", "value": "One"},
      {"measurement": "PFS-6 rate", "setting": "[4]; subgroup with methylated MGMT promoter (23/52), Cilengitide 500 mg + TMZ/RT, historical control 69%", "value": 91, "unit": "%"},
      {"measurement": "PFS-6 rate", "setting": "[4]; subgroup with unmethylated MGMT promotor (22/52), Cilengitide 500 mg + TMZ/RT, historical control 40%", "value": 40.9, "unit": "%"},
      {"measurement": "12 mth overall survival (OS) rate", "setting": "[5]; 500 mg arm", "value": 24.4, "unit": "%"},
      {"measurement": "median Overall Survival (mOS)", "setting": "[5]; 500 mg arm, 95% CI 5.2-9.3 mths", "value": 6.5, "unit": "mths"},
      {"measurement": "PFS rate at 6 mths", "setting": "[5]; 500 mg or 2000 mg i.v. 2x/week, both arms, n=13/81 pts", "value": 16.1, "unit": "%"},
      {"measurement": "12 mth OS rate", "setting": "[5]; 2000 mg arm", "value": 37.5, "unit": "%"},
      {"measurement": "median Overall Survival (mOS)", "setting": "[5]; 2000 mg arm, 95% CI 6.3-15.7 mths", "value": 9.9, "unit": "mths"},
      {"measurement": "grade 4 therapy related AEs", "setting": "[5]; 500 and 2000 mg", "value": "No grade 4 therapy related AEs were reported"},
      {"measurement": "Treatment related NCI CTC grade 3 adverse event: arthralgia/myalgia", "setting": "[5]; at 500 mg", "value": 1, "unit": "patient"},
      {"measurement": "Treatment related NCI CTC grade 3 adverse event: elevated liver enzymes", "setting": "[5]; at 500 mg", "value": 1, "unit": "patient"},
      {"measurement": "Treatment related NCI CTC grade 3 adverse event: weight increase/edema", "setting": "[5]; at 2000 mg", "value": 1, "unit": "patient"},
      {"measurement": "pts still progression-free and on treatment at the time the abstract was issued", "setting": "[5]; both arms, six of 81 pts", "value": 7.4, "unit": "%"},
      {"measurement": "tolerability in single agent therapy", "setting": "[5]; two dose levels (500 and 2000 mg)", "value": "tolerated well"},
      {"measurement": "MTD / side effect profile", "setting": "various brain tumors", "value": "no known MTD in humans"},
      {"measurement": "IC50", "setting": "[1]; agent alone", "value": 700, "unit": "nM"}
    ]}
  ]
}
